Common to all, as to type: functional
Assay [1] relates to Candida tropicalis. The experiment in a line: Antifungal activity against Candida tropicalis ATCC 13803 after 18 hr by agar well diffusion method. On the technique in general: In agar diffusion tests the substance spreads into inoculated agar from a disc or well.
Assay [2] relates to Candida albicans. The experiment in a line: Antifungal activity against Candida albicans ATCC 60193 after 18 hr by agar well diffusion method.
Assay [3] deals with Mycolicibacterium smegmatis. The experiment in a line: Antibacterial activity against Mycobacterium smegmatis ATCC 607 after 18 hr by agar well diffusion method.
In assay [4] the test system is Yersinia pseudotuberculosis. Description: Antibacterial activity against Yersinia pseudotuberculosis ATCC 911 after 18 hr by agar well diffusion method.
The subject of assay [5] is Klebsiella aerogenes. Description: Antibacterial activity against Enterobacter aerogenes ATCC 13048 after 18 hr by agar well diffusion method.
Assay [6] relates to Escherichia coli. Description: Antibacterial activity against Escherichia coli ATCC 25922 after 18 hr by agar well diffusion method.
Assay [7] concerns Klebsiella pneumoniae. Description: Antibacterial activity against Klebsiella pneumoniae ATCC 13883 after 18 hr by agar well diffusion method.
In assay [8] the test system is Staphylococcus aureus. Description: Antibacterial activity against Staphylococcus aureus ATCC 25923 after 18 hr by agar well diffusion method.
The subject of assay [9] is Enterococcus faecalis. Description: Antibacterial activity against Enterococcus faecalis ATCC 29212 after 18 hr by agar well diffusion method.
The test system of assay [10] is Listeria monocytogenes. Description: Antibacterial activity against Listeria monocytogenes ATCC 43251 after 18 hr by agar well diffusion method.
The test system of assay [11] is Bacillus cereus. The experiment in a line: Antibacterial activity against Bacillus cereus 702 Roma after 18 hr by agar well diffusion method.
The subject of assay [12] is Candida tropicalis. The experiment in a line: Antifungal activity against Candida tropicalis ATCC 13803 at 5 mg after 18 hr by agar well diffusion method. As to conditions: ATCC 13803, 18 h, read-out: IZ.
Assay [13] relates to Candida albicans. The experiment in a line: Antifungal activity against Candida albicans ATCC 60193 at 5 mg after 18 hr by agar well diffusion method. The conditions noted are these: ATCC 60193, 18 h, read-out: IZ.
For assay [14], the system named is Enterococcus faecalis. Description: Antibacterial activity against Enterococcus faecalis ATCC 29212 at 10 mg after 18 hr by agar well diffusion method. The conditions noted are these: ATCC 29212, 18 h, read-out: IZ.
Assay [15] relates to Staphylococcus aureus. The experiment in a line: Antibacterial activity against Staphylococcus aureus ATCC 25923 at 10 mg after 18 hr by agar well diffusion method. As to conditions: ATCC 25923, 18 h, read-out: IZ.
For assay [16], the system named is Klebsiella pneumoniae. Description: Antibacterial activity against Klebsiella pneumoniae ATCC 13883 at 10 mg after 18 hr by agar well diffusion method. The conditions noted are these: ATCC 13883, 18 h, read-out: IZ.
For assay [17], the system named is Yersinia pseudotuberculosis. Description: Antibacterial activity against Yersinia pseudotuberculosis ATCC 911 at 10 mg after 18 hr by agar well diffusion method. The conditions noted are these: ATCC 911, 18 h, read-out: IZ.
The test system of assay [18] is Klebsiella aerogenes. The experiment in a line: Antibacterial activity against Enterobacter aerogenes ATCC 13048 at 10 mg after 18 hr by agar well diffusion method. The conditions noted are these: ATCC 13048, 18 h, read-out: IZ.
The subject of assay [19] is Escherichia coli. The experiment in a line: Antibacterial activity against Escherichia coli ATCC 25922 at 10 mg after 18 hr by agar well diffusion method. The conditions noted are these: ATCC 25922, 18 h, read-out: IZ.
In assay [20] the test system is Bacillus cereus. The experiment in a line: Antibacterial activity against Bacillus cereus 702 Roma at 10 mg after 18 hr by agar well diffusion method. As to conditions: read-out: IZ.
The subject of assay [21] is Listeria monocytogenes. Description: Antibacterial activity against Listeria monocytogenes ATCC 43251 at 10 mg after 18 hr by agar well diffusion method. The conditions noted are these: ATCC 43251, 18 h, read-out: IZ.

Calls of active or inactive are those of the source. The calls are words filed in the database; no cut-off is given here.

As for `CCCS(=O)(=O)n1nc(Cc2ccccc2)n(Cc2ccco2)c1=O`, the “inhibition zone (IZ)” value in assay [1], in assay [2], in [10] and in [11] was “inactive” each time. The “inhibition zone (IZ)” value came out at 15 mm in [3]; 10 mm in assay [4]; 8 mm in [5]; 8 mm in [6]; 10 mm in assay [7]; 15 mm in assay [8]. In addition, the “inhibition zone (IZ)” value in assay [9] is 8 mm.
Turning to `O=c1[nH]nc(Cc2ccccc2)n1Cc1ccco1`, the “inhibition zone (IZ)” value in assay [1], in [2], in [4] and in [6] was “inactive” in each case. Further, the “inhibition zone (IZ)” value in [3] came to 10 mm; in [5], 10 mm; in assay [7], 10 mm; in [8], 20 mm; in assay [9], 10 mm; in assay [10], 8 mm. Moreover, in [11], the “inhibition zone (IZ)” value is on record as 8 mm.
Consider `O=c1n(S(=O)(=O)c2ccc(Br)cc2)nc(Cc2ccccc2)n1Cc1ccco1`, for which the “inhibition zone (IZ)” value in [1], in assay [2], in [10] and in assay [11] was “inactive” each time. For the same molecule, the “inhibition zone (IZ)” value turned out to be 10 mm in assay [3]; 8 mm in assay [4]; 8 mm in assay [5]; 10 mm in [6]; 15 mm in assay [7]; 10 mm in assay [8]. The “inhibition zone (IZ)” value in assay [9] was determined as 8 mm.
`Cc1n[nH]c(=O)n1Cc1ccco1`: the “inhibition zone (IZ)” value in [1], in assay [2], in assay [4], in assay [6] and in assay [9] was “inactive” throughout. Also, the “inhibition zone (IZ)” value in [3] turned out to be 10 mm; in assay [5], 10 mm; in assay [7], 10 mm; in assay [8], 20 mm; in [10], 6 mm; in [11], 8 mm.
Consider `Cc1nn(Cc2n[nH]c(=O)n2Cc2ccccc2)c(=O)n1Cc1ccco1`, for which the “inhibition zone (IZ)” value in assay [1], in assay [2], in assay [3], in assay [8], in assay [9] and in assay [10] was “inactive” each time. Also, the “inhibition zone (IZ)” value in assay [4] is recorded as 10 mm; in [5], 6 mm; in assay [6] it was 8 mm; in assay [7], 10 mm; in assay [11] it was 6 mm.
As to `Cc1n[nH]c(=O)n1CC1CCCO1` (centres undefined), the “inhibition zone (IZ)” value in [1], in assay [2], in assay [4] and in [6] was “inactive” in each case. Further, the “inhibition zone (IZ)” value in assay [3] was determined as 15 mm; in [5], 8 mm; in assay [7], 8 mm; in assay [8] it was 20 mm; in assay [9], 10 mm; in [10], 7 mm. In addition, the “inhibition zone (IZ)” value in assay [11] is 15 mm.
As for `OC(Cn1cncn1)(Cn1cncn1)c1ccc(F)cc1F` [FLUCONAZOLE], the zone of inhibition at 5000 µg/disc in [12] and in [13] was 25 mm each time.
Take `Cc1nn(S(=O)(=O)c2ccc([N+](=O)[O-])cc2)c(=O)n1Cc1ccco1`: the “inhibition zone (IZ)” value in assay [1], in [2] and in [10] was “inactive” in each case. Moreover, the “inhibition zone (IZ)” value in assay [3] is recorded as 40 mm; in [4] it was 12 mm; in assay [5], 15 mm; in assay [6], 15 mm; in assay [7], 20 mm; in [8], 15 mm. For the same molecule, the entries for the “inhibition zone (IZ)” value in [9] and in [11] were 6 mm and 15 mm, respectively.
For the molecule `Cc1nn(Cc2nnc(S)n2-c2ccccc2)c(=O)n1Cc1ccco1`, the “inhibition zone (IZ)” value in [1], in [2], in assay [3], in assay [8], in assay [9] and in assay [10] was “inactive” in each case. In addition, the “inhibition zone (IZ)” value in assay [11] is “inactive”. The “inhibition zone (IZ)” value came out at 10 mm in [4], 6 mm in assay [5], 6 mm in [6] and 10 mm in assay [7].
Regarding `CN[C@@H]1[C@H](O[C@H]2[C@H](O[C@H]3[C@H](O)[C@@H](O)[C@H](N=C(N)N)[C@@H](O)[C@@H]3N=C(N)N)O[C@@H](C)[C@]2(O)C=O)O[C@@H](CO)[C@H](O)[C@H]1O` [STREPTOMYCIN], in assay [3], the “inhibition zone (IZ)” value is reported as 35 mm.
In the case of `Cc1nn(S(=O)(=O)c2ccccc2)c(=O)n1Cc1ccco1`, the “inhibition zone (IZ)” value in assay [1] and in assay [2] was “inactive” each time. For the same molecule, the “inhibition zone (IZ)” value in assay [3] is recorded as 20 mm; in assay [4] it was 12 mm; in assay [5] it was 15 mm; in [6], 20 mm; in assay [7], 20 mm; in [8] it was 35 mm. The “inhibition zone (IZ)” value in [9] amounted to 25 mm; in assay [10], 20 mm; in [11] it was 15 mm.
In the case of `O=c1n(S(=O)(=O)c2ccc(Cl)cc2)nc(Cc2ccccc2)n1Cc1ccco1`, the “inhibition zone (IZ)” value in assay [1], in assay [2], in assay [10] and in [11] was “inactive” in each case. Moreover, the “inhibition zone (IZ)” value in [3] was 10 mm; in [4], 8 mm; in assay [5], 8 mm; in assay [6] it was 6 mm; in [7] it was 10 mm; in assay [8], 15 mm. Also, the “inhibition zone (IZ)” value in assay [9] turned out to be 10 mm.
In the case of `CC1(C)S[C@@H]2[C@H](NC(=O)[C@H](N)c3ccccc3)C(=O)N2[C@H]1C(=O)O` [AMPICILLIN], the zone of inhibition at 10000 µg/disc in assay [14] is 10 mm; in [15], 35 mm; in [16], 18 mm; in assay [17], above 18 mm; in assay [18] it was 10 mm; in [19] it was 10 mm. The zone of inhibition at 10000 µg/disc in assay [20] was determined as 15 mm; in assay [21], 10 mm. Besides, the “inhibition zone (IZ)” value in [1] and in [2] was “inactive” each time.
Regarding `CCOC(=O)Cn1nc(C)n(Cc2ccco2)c1=O`, the “inhibition zone (IZ)” value worked out at 7 mm in assay [1]; 9 mm in [2]; 15 mm in [3]; 10 mm in assay [5]; 10 mm in assay [7]; 8 mm in assay [8]. Besides, the “inhibition zone (IZ)” value in assay [10] is 8 mm; in assay [11], 6 mm. Further, the “inhibition zone (IZ)” value in assay [4], in assay [6] and in [9] was “inactive” each time.

(Values after ChEMBL document CHEMBL3046591, “Design and synthesis of some azole derivatives as potential antimicrobial agents” (2012).)
